Experimental data published in PMC9346598 (The Journal of Poultry Science, 2022).
Each block holds one molecule with its values, some of them ahead of it.

Key:
chicken GPR120 (cGPR120) [1] = molecular target: T1, chicken GPR120 (cGPR120) (Gallus gallus, UniProt A0A8V0ZCZ6); experiment: Fura-2 Ca2+ imaging in transfected HEK293T cells, Hill fit; format: cell-based
T1 sequence (A0A8V0ZCZ6 1-362): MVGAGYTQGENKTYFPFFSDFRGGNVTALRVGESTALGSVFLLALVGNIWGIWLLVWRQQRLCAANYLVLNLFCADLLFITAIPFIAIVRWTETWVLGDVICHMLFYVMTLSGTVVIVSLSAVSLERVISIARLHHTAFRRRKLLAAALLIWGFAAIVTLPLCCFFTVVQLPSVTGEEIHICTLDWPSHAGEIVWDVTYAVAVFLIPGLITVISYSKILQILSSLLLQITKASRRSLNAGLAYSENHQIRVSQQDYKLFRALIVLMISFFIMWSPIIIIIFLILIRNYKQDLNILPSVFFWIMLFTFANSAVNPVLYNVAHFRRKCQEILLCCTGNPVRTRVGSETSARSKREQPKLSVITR

chicken GPR120 (cGPR120) [2] = molecular target: T1, chicken GPR120 (cGPR120); experiment: as above; format: cell-based; settings: agonist, pH 7.4, about 37 C

- EC50 (chicken GPR120 (cGPR120) [1]): 1040 µM
Structure (SMILES): CCCCC/C=C\C/C=C\C/C=C\C/C=C\CCCC(=O)O [AA, arachidonic acid]

Structure (SMILES): CC/C=C\C/C=C\C/C=C\C/C=C\C/C=C\C/C=C\CCC(=O)O [DHA, docosahexaenoic acid]
- Fura-2 Ca2+ imaging in transfected HEK293T cells, Hill fit (chicken GPR120 (cGPR120) [2]; 0.1-3 mmol/L in well, stock in ethanol): EPA and DHA activated cGPR120 in a dose-dependent manner

Structure (SMILES): CC/C=C\C/C=C\C/C=C\C/C=C\C/C=C\CCCC(=O)O [EPA, eicosapentaenoic acid]
- Fura-2 Ca2+ imaging in transfected HEK293T cells, Hill fit (chicken GPR120 (cGPR120) [2]; 0.1-7 mmol/L in well, stock in ethanol): EPA and DHA activated cGPR120 in a dose-dependent manner

Structure (SMILES): CCCCC/C=C\C/C=C\CCCCCCCC(=O)O [LA, linoleic acid]
- Fura-2 Ca2+ imaging in transfected HEK293T cells, Hill fit (chicken GPR120 (cGPR120) [2]; 1-10 mmol/L in well, stock in DMSO): cGPR120 cells were activated in a dose-dependent manner by LA
